Each molecule was assayed against T1, Human thrombin (Homo sapiens, UniProt P00734) (assay: Inhibition of the protease activity of thrombin (chromogenic substrate S-2238)). Conditions: Table C; 3 nM thrombin, 125 μM S-2238, 10 min pre-incubation, RT.
T1 construct: purchased Haematologic Technologies Inc
Type: biochemical

First: O=C(c1ccccc1Cl)n1nc(-c2ccco2)nc1NCc1ccc(F)cc1 [Cmpd 331, 1-[(2-chlorophenyl)carbonyl]-N-[(4-fluorophenyl)methyl]-3-(furan-2-yl)-1H-1,2,4-triazol-5-amine]
Second: COc1ccc(CNc2nc(-c3cccnc3)nn2C(=O)c2ccccc2)cc1 [Cmpd 357, 1-benzoyl-N-[(4-methoxyphenyl)methyl]-3-(pyridin-3-yl)-1H-1,2,4-triazol-5-amine]
The IC50 of the first is lower: less than 100 nM for the first, 100 to 1000 nM for the second. The first is the more potent here.

`Cc1ccc(CNc2nc(-c3cccnc3)nn2C(=O)C(C)C)cc1` [Cmpd 366, 2-methyl-1-(5-[(4-methylphenyl)methyl]amino-3-(pyridin-3-yl)-1H-1,2,4-triazol-1-yl)propan-1-one] and `COc1ccc(CNc2nc(-c3cccnc3)nn2C(=O)CC(C)C)cc1` [Cmpd 320, 1-(5-[(4-methoxyphenyl)methyl]amino-3-(pyridin-3-yl)-1H-1,2,4-triazol-1-yl)-3-methylbutan-1-one] cannot be ordered by IC50: less than 100 nM for the first, less than 100 nM for the second.

Compared with `Nc1nc(C(=O)N2CCOCC2)nn1S(=O)(=O)c1ccccc1` [Cmpd 328, 1-(benzenesulfonyl)-3-[(morpholin-4-yl)carbonyl]-1H-1,2,4-triazol-5-amine], `CCC(=O)n1nc(-c2cccnc2)nc1NCc1ccco1` [Cmpd 364, 1-5-[(furan-2-ylmethyl)amino]-3-(pyridin-3-yl)-1H-1,2,4-triazol-1-ylpropan-1-one] is lower in IC50: greater than 1000 nM for the first, 100 to 1000 nM for the second.

`O=C(Nc1ccc(Br)cc1)c1nc(-n2cnnc2)n[nH]1` [Cmpd 392, N-(4-bromophenyl)-3-(4H-1,2,4-triazol-4-yl)-1H-1,2,4-triazole-5-carboxamide] and `Nc1n[nH]c(-c2ccccn2)n1` [Cmpd 2, 3-(pyridin-2-yl)-1H-1,2,4-triazol-5-amine] cannot be ordered by IC50: greater than 1000 nM for the first, greater than 1000 nM for the second.

Same assay, conditions: inhibition of the protease activity of thrombin

Compared with `O=C(c1cccc2ccccc12)n1nc(-c2ccccn2)cc1NCc1ccccc1` [Cmpd 270, N-benzyl-1-[(naphthalen-1-yl)carbonyl]-3-(pyridin-2-yl)-1H-pyrazol-5-amine], `O=C(c1cccc2ccccc12)n1nc(-c2ccccn2)nc1NCc1ccccc1` [Cmpd 269, N-benzyl-1-[(naphthalen-1-yl)carbonyl]-3-(pyridin-2-yl)-1H-1,2,4-triazol-5-amine] is lower in IC50: greater than 1000 nM for the first, less than 100 nM for the second. The second is the more potent here.

Going from `CC(C)OC(=O)n1nc(-c2cccnc2)nc1NCc1ccc(F)cc1` [Cmpd 299, propan-2-yl 5-[(4-fluorophenyl)methyl]amino-3-(pyridin-3-yl)-1H-1,2,4-triazole-1-carboxylate] to `O=C(c1ccsc1)n1nc(-c2ccccc2)nc1NCc1ccc(F)cc1` [Cmpd 222, N-[(4-fluorophenyl)methyl]-3-phenyl-1-[(thiophen-3-yl)carbonyl]-1H-1,2,4-triazol-5-amine], the IC50 falls from greater than 1000 nM to less than 100 nM.

First: COc1ccc(C(=O)n2nc(-c3ccccc3F)cc2NCc2ccccc2)c(OC)c1 [Cmpd 234, N-benzyl-1-[(2,4-dimethoxyphenyl)carbonyl]-3-(2-fluorophenyl)-1H-pyrazol-5-amine]
Second: O=C(c1ccccc1F)n1nc(-c2ccccc2F)cc1NCc1ccccc1 [Cmpd 277, N-benzyl-3-(2-fluorophenyl)-1-[(2-fluorophenyl)carbonyl]-1H-pyrazol-5-amine]
The IC50 of the first is higher: greater than 1000 nM for the first, 100 to 1000 nM for the second. The second is the more potent here.

`COc1cc(C)ccc1C(=O)n1nc(-c2ccccn2)nc1NCc1ccccc1` [Cmpd 253, N-benzyl-1-[(2-methoxy-4-methylphenyl)carbonyl]-3-(pyridin-2-yl)-1H-1,2,4-triazol-5-amine] and `O=C(c1ccccc1OC(F)(F)F)n1nc(-c2ccccn2)nc1NCc1ccccc1` [Cmpd 285, N-benzyl-3-(pyridin-2-yl)-1-[2-(trifluoromethoxy)phenyl]carbonyl-1H-1,2,4-triazol-5-amine] cannot be ordered by IC50: less than 100 nM for the first, less than 100 nM for the second.

Compared with `COc1ccc(CNc2nc(-c3ccccn3)nn2C(=O)c2cccs2)cc1` [Cmpd 226, N-[(4-methoxyphenyl)methyl]-3-(pyridin-2-yl)-1-[(thiophen-2-yl)carbonyl]-1H-1,2,4-triazol-5-amine], `O=C(c1ccco1)n1nc(-c2ccccn2)nc1NCc1ccc(F)cc1` [Cmpd 210, N-[(4-fluorophenyl)methyl]-1-[(furan-2-yl)carbonyl]-3-(pyridin-2-yl)-1H-1,2,4-triazol-5-amine] is lower in IC50: greater than 1000 nM for the first, less than 100 nM for the second.

First: CCc1ccccc1C(=O)n1nc(-c2ccccn2)cc1NCc1ccccc1 [Cmpd 247, N-benzyl-1-[(2-ethylphenyl)carbonyl]-3-(pyridin-2-yl)-1H-pyrazol-5-amine]
Second: O=C(c1ccccc1Br)n1nc(-c2ccccn2)cc1NCc1ccccc1 [Cmpd 241, N-benzyl-1-[(2-bromophenyl)carbonyl]-3-(pyridin-2-yl)-1H-pyrazol-5-amine]
The IC50 of the first is higher: greater than 1000 nM for the first, 100 to 1000 nM for the second.

`O=C(c1ccccc1Cl)n1nc(-c2ccncc2)nc1NCc1ccccc1` [Cmpd 245, N-benzyl-1-[(2-chlorophenyl)carbonyl]-3-(pyridin-4-yl)-1H-1,2,4-triazol-5-amine] and `O=C(c1cccc2c1OCCO2)n1nc(-c2ccccn2)nc1NCc1ccccc1` [Cmpd 232, N-benzyl-1-[(2,3-dihydro-1,4-benzodioxin-5-yl)carbonyl]-3-(pyridin-2-yl)-1H-1,2,4-triazol-5-amine] cannot be ordered by IC50: less than 100 nM for the first, less than 100 nM for the second.

Going from `c1ccc(CNc2nc(-c3cccnc3)n[nH]2)cc1` [Cmpd 287, N-benzyl-3-(pyridin-3-yl)-1H-1,2,4-triazol-5-amine] to `O=C(c1ccccc1F)n1nc(-c2ccccn2)cc1NCc1ccccc1` [Cmpd 251, N-benzyl-1-[(2-fluorophenyl)carbonyl]-3-(pyridin-2-yl)-1H-pyrazol-5-amine], the IC50 falls from greater than 1000 nM to less than 100 nM. The second is the more potent here.

Molecule `CCNC(=O)c1cn(-c2ccccn2)nc1NCc1ccc(F)cc1` [Cmpd 295, N-ethyl-3-[(4-fluorophenyl)methyl]amino-1-(pyridin-2-yl)-1H-pyrazole-4-carboxamide] has an IC50 greater than 1000 nM.

Same assay, conditions: inhibition of the protease activity of thrombin; class symbols a/b/c

`Cc1ccc(C(=O)n2nc(-c3ccccc3F)cc2NCc2ccccc2)c(N)c1` [Cmpd 106, 1-[(2-amino-4-methylphenyl)carbonyl]-N-benzyl-3-(2-fluorophenyl)-1H-pyrazol-5-amine] and `O=C(c1ccccc1Cl)n1nc(-c2ccccc2)cc1NCc1ccc(F)cc1` [Cmpd 114, 1-[(2-chlorophenyl)carbonyl]-N-[(4-fluorophenyl)methyl]-3-phenyl-1H-pyrazol-5-amine] cannot be ordered by IC50: greater than 1000 nM for the first, greater than 1000 nM for the second.

Compared with `O=C(CCc1ccccc1)n1nc(-c2ccncc2)nc1NCc1ccccc1` [Cmpd 149, 1-[5-(benzylamino)-3-(pyridin-4-yl)-1H-1,2,4-triazol-1-yl]-3-phenylpropan-1-one], `COc1ccc(CNc2nc(-c3ccncc3)nn2C(=O)Cc2ccccc2)cc1` [Cmpd 96, 1-(5-[(4-methoxyphenyl)methyl]amino-3-(pyridin-4-yl)-1H-1,2,4-triazol-1-yl)-2-phenylethan-1-one] is lower in IC50: 100 to 1000 nM for the first, less than 100 nM for the second. The second is the more potent here.

Compared with `O=C(c1ccccc1Cl)n1nc(-c2ccccn2)cc1NCc1ccc(F)cc1` [Cmpd 41], `O=C(CCc1ccccc1)n1nc(-c2ccccn2)nc1NCc1ccc(F)cc1` [Cmpd 68, 1-(5-[(4-fluorophenyl)methyl]amino-3-(pyridin-2-yl)-1H-1,2,4-triazol-1-yl)-3-phenylpropan-1-one] is lower in IC50: 100 to 1000 nM for the first, less than 100 nM for the second.

Going from `CCC(O)c1cc(-c2ccccn2)nn1CCc1ccc(F)cc1` (stereo not drawn) [Cmpd 55] to `CC(C)CC(=O)n1nc(-c2ccccn2)nc1NCc1ccc(F)cc1` [Cmpd 67, 1-(5-[(4-fluorophenyl)methyl]amino-3-(pyridin-2-yl)-1H-1,2,4-triazol-1-yl)-3-methylbutan-1-one], the IC50 falls from greater than 1000 nM to less than 100 nM.

`CC(C)(C)C(=O)n1nc(-c2ccncc2)nc1NCc1ccccc1` [Cmpd 145, 1-[5-(benzylamino)-3-(pyridin-4-yl)-1H-1,2,4-triazol-1-yl]-2,2-dimethylpropan-1-one] and `CC(C)(C)C(=O)n1nc(-c2cccnc2)nc1NCc1ccc(F)cc1` [Cmpd 71, 1-(5-[(4-fluorophenyl)methyl]amino-3-(pyridin-3-yl)-1H-1,2,4-triazol-1-yl)-2,2-dimethylpropan-1-one] cannot be ordered by IC50: less than 100 nM for the first, less than 100 nM for the second.

`CCCC(=O)n1nc(-c2ccccn2)nc1NCc1ccccc1` [Cmpd 141, 1-[5-(benzylamino)-3-(pyridin-2-yl)-1H-1,2,4-triazol-1-yl]butan-1-one] and `CC(C)CC(=O)n1nc(-c2ccncc2)nc1NCc1ccc(F)cc1` [Cmpd 78, 1-(5-[(4-fluorophenyl)methyl]amino-3-(pyridin-4-yl)-1H-1,2,4-triazol-1-yl)-3-methylbutan-1-one] cannot be ordered by IC50: less than 100 nM for the first, less than 100 nM for the second.

`O=C(Oc1ccccc1F)n1nc(-c2cccnc2)nc1NCc1ccc(F)cc1` [Cmpd 173, 2-fluorophenyl 5-[(4-fluorophenyl)methyl]amino-3-(pyridin-3-yl)-1H-1,2,4-triazole-1-carboxylate] and `CNC(=O)n1nc(-c2cccnc2)nc1NCc1ccc(F)cc1` [Cmpd 19] cannot be ordered by IC50: greater than 1000 nM for the first, greater than 1000 nM for the second.

Compared with `CCC(=O)c1cn(-c2ccccc2)nc1NCc1ccc(F)cc1` [Cmpd 62, 1-(3-[(4-fluorophenyl)methyl]amino-1-phenyl-1H-pyrazol-4-yl)propan-1-one], `CCC(=O)n1nc(-c2cccnc2)nc1SCc1ccc(F)cc1` [Cmpd 86, 1-(5-[(4-fluorophenyl)methyl]sulfanyl-3-(pyridin-3-yl)-1H-1,2,4-triazol-1-yl)propan-1-one] is lower in IC50: greater than 1000 nM for the first, less than 100 nM for the second.

First: COc1ccc(CNc2nc(-c3cccnc3)nn2C(=O)c2ccoc2)cc1 [Cmpd 126, 1-[(furan-3-yl)carbonyl]-N-[(4-methoxyphenyl)methyl]-3-(pyridin-3-yl)-1H-1,2,4-triazol-5-amine]
Second: COc1ccc(CNc2nc(-c3ccncc3)nn2C(=O)C(C)C)cc1 [Cmpd 95, 1-(5-[(4-methoxyphenyl)methyl]amino-3-(pyridin-4-yl)-1H-1,2,4-triazol-1-yl)-2-methylpropan-1-one]
The IC50 of the first is higher: 100 to 1000 nM for the first, less than 100 nM for the second.

First: O=C(c1ccc(Cl)cc1)n1nc(-c2ccncc2)nc1NCc1ccc(F)cc1 [Cmpd 122, 1-[(4-chlorophenyl)carbonyl]-N-[(4-fluorophenyl)methyl]-3-(pyridin-4-yl)-1H-1,2,4-triazol-5-amine]
Second: Fc1ccc(CN(Cc2ccc(F)cc2)c2cc(-c3ccccn3)nn2-c2ccccc2Cl)cc1 [Cmpd 44]
The IC50 of the first is lower: 100 to 1000 nM for the first, greater than 1000 nM for the second.

— patent US20170326125A1, “MULTISUBSTITUTED AROMATIC COMPOUNDS AS INHIBITORS OF THROMBIN” (VERSEON CORPORATION, priority 2016, published 2017)
